The target in assay [1] is T1, human 5-HT2C receptor (Homo sapiens, UniProt P28335).
T1 construct: expressed in transfected cells; host or cells: CHO (Chinese Hamster Ovary) cells; membrane preparation
T1 sequence (P28335 33-458): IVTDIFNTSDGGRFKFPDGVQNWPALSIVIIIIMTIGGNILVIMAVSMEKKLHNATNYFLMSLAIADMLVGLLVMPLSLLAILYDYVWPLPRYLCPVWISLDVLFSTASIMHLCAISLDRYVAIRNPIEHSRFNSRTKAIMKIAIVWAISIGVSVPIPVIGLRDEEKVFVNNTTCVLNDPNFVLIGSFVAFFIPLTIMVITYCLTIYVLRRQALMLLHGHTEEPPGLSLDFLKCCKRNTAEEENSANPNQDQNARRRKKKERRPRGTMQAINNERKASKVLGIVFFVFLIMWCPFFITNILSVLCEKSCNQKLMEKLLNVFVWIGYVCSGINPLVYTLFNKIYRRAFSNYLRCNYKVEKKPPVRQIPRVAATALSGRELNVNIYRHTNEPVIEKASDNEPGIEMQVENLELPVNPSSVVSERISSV
Briefly: 5-HT2C receptor binding, [125I]DOI displacement, membranes of transfected CHO cells.

The target in assay [2] is T1, human 5-HT2C receptor. Description: 5-HT2C receptor-stimulated calcium mobilization (FLIPR) in CHO cells. The format is cell-based. Conditions: for Emax: CHO, read-out: 5-HT2C Function EMax (%); for pEC50: calcium mobilization, CHO cells, read-out: 5-HT2C Function EC50. For orientation: A change in cytosolic calcium serves as a functional read-out for many receptors and channels.

Setting [3] is: read-out: 5-HT2C Binding Ki avg.

pEC50, pKd, pKi: −log10 of the molar value. Like-named read-outs stand apart in the source and are kept apart here.

Take `COc1ccccc1-c1cccc2c1OC(CN)CN2C` (racemic) [Example 1, 1-[8-(2-Methoxyphenyl)-4-methyl-3,4-dihydro-2H-1,4-benzoxazin-2-yl]methanamine]: at human 5-HT2C receptor [1] (setting [3]), the pKi is 7.33. Also, on human 5-HT2C receptor [2], the Emax amounted to 60% and the pEC50 is 7.31.

As for `Cc1cc(Cl)ccc1-c1cccc2c1OC(CN)CN2C` (racemic) [Example 2, 1-[8-(4-Chloro-2-methylphenyl)-4-methyl-3,4-dihydro-2H-1,4-benzoxazin-2-yl]methanamine], at human 5-HT2C receptor [1] (setting [3]), the pKi is 7.83. Also, on human 5-HT2C receptor [2], the Emax turned out to be 70% and the pEC50 was 6.55.

Regarding `CN1CC(CN)Oc2c(-c3ccc(Cl)cc3Cl)cccc21` (racemic) [Example 3, 1-[8-(2,4-Dichlorophenyl)-4-methyl-3,4-dihydro-2H-1,4-benzoxazin-2-yl]methanamine], the pKi at human 5-HT2C receptor [1] (setting [3]) was 7.88. Also, at human 5-HT2C receptor [2], the Emax came out at 70% and the pEC50 is 6.91.

With `CN1CC(CN)Oc2c(-c3ccccc3C(F)(F)F)cccc21` (racemic) [Example 4, 1-{4-Methyl-8-[2-(trifluoromethyl)phenyl]-3,4-dihydro-2H-1,4-benzoxazin-2-yl}methanamine], the pKi on human 5-HT2C receptor [1] (setting [3]) was 8.07. Also, at human 5-HT2C receptor [2], the Emax was determined as 70% and the pEC50 is 7.21.

As to `CN1CC(CN)Oc2c(-c3ccccc3)cccc21` (racemic) [Example 9, 1-(4-Methyl-8-phenyl-3,4-dihydro-2H-1,4-benzoxazin-2-yl)methanamine], the pKi on human 5-HT2C receptor [1] (setting [3]) was 6.79.

Turning to `CCN1CC(CN)Oc2c(-c3ccccc3Cl)cccc21` (racemic) [Example 19, 1-[8-(2-Chlorophenyl)-4-ethyl-3,4-dihydro-2H-1,4-benzoxazin-2-yl]methanamine], at human 5-HT2C receptor [1] (setting [3]), the negative-log Ki (pKi) is 7.09.

As to `CCCN1CC(CN)Oc2c(-c3ccccc3Cl)cccc21` (racemic) [Example 21, 1-[8-(2-Chlorophenyl)-4-propyl-3,4-dihydro-2H-1,4-benzoxazin-2-yl]methanamine], the pKi at human 5-HT2C receptor [1] (setting [3]) is 7.19.

Turning to `NCC1COc2cc(Cl)cc(-c3ccccc3C(F)(F)F)c2N1` (racemic) [Example 25, 1-{7-Chloro-5-[2-(trifluoromethyl)phenyl]-3,4-dihydro-2H-1,4-benzoxazin-3-yl}methanamine], the pKi at human 5-HT2C receptor [1] (setting [3]) is 7.17.

Turning to `COc1ccc(-c2cc(Cl)cc3c2NC(CN)CO3)cc1` (racemic) [Example 26, 1-[7-Chloro-5-(4-methoxyphenyl)-3,4-dihydro-2H-1,4-benzoxazin-3-yl]methanamine], the pKi at human 5-HT2C receptor [1] (setting [3]) was 6.80.

In the case of `COc1ccc(-c2cc(Cl)cc3c2N(C)C(CN)CO3)c(C)c1` (racemic) [Example 28, 1-[7-chloro-5-(4-methoxy-2-methylphenyl)-4-methyl-3,4-dihydro-2H-1,4-benzoxazin-3-yl]methanamine], the pKi at human 5-HT2C receptor [1] (setting [3]) is 5.95.

Take `NCC1COc2cc(Cl)cc(-c3ccccc3)c2N1` (racemic) [Example 29, 1-(7-chloro-5-phenyl-3,4-dihydro-2H-1,4-benzoxazin-3-yl)methanamine]: the pKi at human 5-HT2C receptor [1] (setting [3]) is 6.38.

As for `Cc1ccccc1-c1cc(Cl)cc2c1NC(CN)CO2` (racemic) [Example 30, 1-[7-chloro-5-(2-methylphenyl)-3,4-dihydro-2H-1,4-benzoxazin-3-yl]methanamine], the pKi on human 5-HT2C receptor [1] (setting [3]) was 6.81.

Turning to `NCC1COc2cc(Cl)cc(-c3ccccc3F)c2N1` (racemic) [Example 33, 1-[7-chloro-5-(2-fluorophenyl)-3,4-dihydro-2H-1,4-benzoxazin-3-yl]methanamine], on human 5-HT2C receptor [1] (setting [3]), the pKi is 6.82.

For the molecule `COc1ccccc1-c1cc(Cl)cc2c1NC(CN)CO2` (racemic) [Example 34, 1-[7-chloro-5-(2-methoxyphenyl)-3,4-dihydro-2H-1,4-benzoxazin-3-yl]methanamine], at human 5-HT2C receptor [1] (setting [3]), the pKi is 6.13.

For `Cc1cc(Cl)ccc1-c1cc(Cl)cc2c1NC(CN)CO2` (racemic) [Example 35, 1-[7-chloro-5-(4-chloro-2-methylphenyl)-3,4-dihydro-2H-1,4-benzoxazin-3-yl]methanamine], the pKi at human 5-HT2C receptor [1] (setting [3]) is 6.76.

Turning to `NCC1COc2cc(Cl)cc(-c3ccc(Cl)cc3C(F)(F)F)c2N1` (racemic) [Example 37, 1-{7-chloro-5-[4-chloro-2-(trifluoromethyl)phenyl]-3,4-dihydro-2H-1,4-benzoxazin-3-yl}methanamine], the pKi at human 5-HT2C receptor [1] (setting [3]) is 6.78.

As for `NCC1COc2cc(Cl)cc(-c3ccc(C(F)(F)F)cc3C(F)(F)F)c2N1` (racemic) [Example 38, 1-{5-[2,4-bis(trifluoromethyl)phenyl]-7-chloro-3,4-dihydro-2H-1,4-benzoxazin-3-yl}methanamine], on human 5-HT2C receptor [1] (setting [3]), the pKi is 6.54.

Take `COc1ccc(-c2cc(F)cc3c2NC(CN)CO3)c(C)c1` (racemic) [Example 56, 1-[7-fluoro-5-(4-methoxy-2-methylphenyl)-3,4-dihydro-2H-1,4-benzoxazin-3-yl]methanamine]: the pKi on human 5-HT2C receptor [1] (setting [3]) was 6.80.

In the case of `NCC1COc2cc(F)cc(-c3ccccc3Cl)c2N1` (racemic) [Example 57, 1-[5-(2-chlorophenyl)-7-fluoro-3,4-dihydro-2H-1,4-benzoxazin-3-yl]methanamine], the pKi at human 5-HT2C receptor [1] (setting [3]) was 6.81.

For the molecule `Cc1ccccc1-c1cc(F)cc2c1NC(CN)CO2` (racemic) [Example 58, 1-[7-fluoro-5-(2-methylphenyl)-3,4-dihydro-2H-1,4-benzoxazin-3-yl]methanamine], the pKi at human 5-HT2C receptor [1] (setting [3]) was 6.81.

As to `Cc1ccc(-c2cc(F)cc3c2NC(CN)CO3)c(C(F)(F)F)c1` (racemic) [Example 60, 1-{7-fluoro-5-[4-methyl-2-(trifluoromethyl)phenyl]-3,4-dihydro-2H-1,4-benzoxazin-3-yl}methanamine], the pKi on human 5-HT2C receptor [1] (setting [3]) is 7.19.

For the molecule `COc1ccc(-c2cc(F)cc3c2NC(CN)CO3)cc1` (racemic) [Example 61, 1-[7-fluoro-5-(4-methoxyphenyl)-3,4-dihydro-2H-1,4-benzoxazin-3-yl]methanamine], on human 5-HT2C receptor [1] (setting [3]), the pKi was 6.42.

`NCC1COc2cc(F)cc(-c3ccccc3F)c2N1` (racemic) [Example 62, 1-[7-fluoro-5-(2-fluorophenyl)-3,4-dihydro-2H-1,4-benzoxazin-3-yl]methanamine]: at human 5-HT2C receptor [1] (setting [3]), the pKi is 6.10.

Take `Cc1cc(Cl)ccc1-c1cc(F)cc2c1NC(CN)CO2` (racemic) [Example 63, 1-[5-(4-chloro-2-methylphenyl)-7-fluoro-3,4-dihydro-2H-1,4-benzoxazin-3-yl]methanamine]: at human 5-HT2C receptor [1] (setting [3]), the pKi was 6.64.

In the case of `COc1ccccc1-c1cc(F)cc2c1NC(CN)CO2` (racemic) [Example 64, 1-[7-fluoro-5-(2-methoxyphenyl)-3,4-dihydro-2H-1,4-benzoxazin-3-yl]methanamine], at human 5-HT2C receptor [1] (setting [3]), the pKi was 6.54.

On to `NCC1COc2cc(F)cc(-c3cccc(Cl)c3)c2N1` (racemic) [Example 65, 1-[5-(3-chlorophenyl)-7-fluoro-3,4-dihydro-2H-1,4-benzoxazin-3-yl]methanamine], for which the pKi on human 5-HT2C receptor [1] (setting [3]) was 6.30.

`CN1CC(CN)Oc2c(-c3cccc(Cl)c3)cccc21` (racemic) [Example 66, 1-[8-(3-chlorophenyl)-4-methyl-3,4-dihydro-2H-1,4-benzoxazin-2-yl]methanamine]: the pKi on human 5-HT2C receptor [1] (setting [3]) was 6.59.

As for `Cc1cc(Cl)ccc1-c1cccc2c1O[C@H](CN)CN2` [Example 42, 1-[(2R)-8-(4-chloro-2-methylphenyl)-3,4-dihydro-2H-1,4-benzoxazin-2-yl]methanamine], the pKi on human 5-HT2C receptor [1] (setting [3]) was 6.28.

For the molecule `NC[C@@H]1CNc2cccc(-c3ccccc3F)c2O1` [Example 43, 1-[(2R)-8-(2-fluorophenyl)-3,4-dihydro-2H-1,4-benzoxazin-2-yl]methanamine], the pKi at human 5-HT2C receptor [1] (setting [3]) is 7.01.

`COc1ccc(-c2cccc3c2O[C@H](CN)CN3)c(C)c1` [Example 44, 1-[(2R)-8-(4-methoxy-2-methylphenyl)-3,4-dihydro-2H-1,4-benzoxazin-2-yl]methanamine]: the pKi on human 5-HT2C receptor [1] (setting [3]) is 6.84.

`COc1ccc(-c2cccc3c2O[C@H](CN)CN3)cc1` [Example 45, 1-[(2R)-8-(4-methoxyphenyl)-3,4-dihydro-2H-1,4-benzoxazin-2-yl]methanamine]: the “5-HT2C Binding, % @1 μM” value on human 5-HT2C receptor [1] (@1 μM) is listed as 18% @1 μM.

As for `COc1ccc(-c2cccc3c2O[C@H](CN)CN3)c(Cl)c1` [Example 46, 1-[(2R)-8-(2-chloro-4-methoxyphenyl)-3,4-dihydro-2H-1,4-benzoxazin-2-yl]methanamine], the pKi at human 5-HT2C receptor [1] (setting [3]) was 6.88.

As for `Cc1cc(Cl)ccc1-c1cccc2c1O[C@@H](CN)CN2` [Example 48, 1-[(2S)-8-(4-chloro-2-methylphenyl)-3,4-dihydro-2H-1,4-benzoxazin-2-yl]methanamine], the pKi on human 5-HT2C receptor [1] (setting [3]) is 7.00.

For `NC[C@H]1CNc2cccc(-c3ccccc3F)c2O1` [Example 49, 1-[(2S)-8-(2-fluorophenyl)-3,4-dihydro-2H-1,4-benzoxazin-2-yl]methanamine], the pKi at human 5-HT2C receptor [1] (setting [3]) is 6.84.

Consider `COc1ccc(-c2cccc3c2O[C@@H](CN)CN3)cc1` [Example 51, 1-[(2S)-8-(4-methoxyphenyl)-3,4-dihydro-2H-1,4-benzoxazin-2-yl]methanamine], for which the pKi at human 5-HT2C receptor [1] (setting [3]) was 6.87.

As for `CSc1ccc2c(c1)C(N1CCN(C)CC1)Cc1ccccc1S2` (stereo not drawn) [Methiothepin, reference compound], the pKi on human 5-HT2C receptor [1] (reference compounds, value (95% confidence interval), [125I]DOI binding, read-out: Ki) was 8.34.

Take `COc1cc(CC(C)N)c(OC)cc1I` (stereo not drawn) [[^125I] DOI, reference compound]: the pKd on human 5-HT2C receptor [1] (saturation binding with increasing concentrations of [125I] DOI, read-out: dissociation constant, KD) was 9.40.

As a reminder, the pKi is the negative decadic logarithm of the Ki, by convention in mol/L. As a reminder, the Emax is the greatest response seen or fitted, relative to the assay's reference. As usually defined, the pEC50 is the EC50 on a negative log10 scale, so that one unit is a factor of ten. As usually defined, the pKd is the Kd on a negative log10 scale, so that one unit is a factor of ten.

These data come from patent US20100035871A1, “BENZOXAZINE DERIVATIVES AND USES THEREOF” (priority 2006, published 2010).
